Earlier results on one compound are cited in patent publication US5770699A, “Process for production of inhibited forms of activated blood factors” (COR Therapeutics, Inc., priority 1996, dated 1998).

The target in the data set is Factor Xa. Conditions: transient (reversible) inhibition of Factor Xa; stated as known; cited from earlier work.

For `N=C(N)c1ccc2oc(CCc3cc4cc(C(=N)N)ccc4o3)cc2c1` [1,2-bis(5-amidino 2-benzofuranyl) ethane], the Ki is 0.57 µM.

The term Ki denotes a measure of affinity in units of concentration, obtained from inhibition or displacement.
